This passage reports IC50 results from patent US11046699B2, “Pyrazolo-pyrimidin-amino-cycloalkyl compounds and their therapeutic uses” (RAPT THERAPEUTICS, INC., priority 2018, dated 2021).

In the experiment the target is GCN2 (Homo sapiens, UniProt Q9P2K8). Description: GCN2 enzymatic endpoint assay: phosphorylation of GFP-eIF2α measured by TR-FRET (Lanthascreen). Particulars: tested as described in Example 77; compound and/or hydrochloride, dihydrochloride or trifluoroacetic acid salt; read-out: IC 50 Activity. Format: biochemical. A digest of the protocol: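 Endpoint GCN2 reaction with low ATP (2 μM) and 80 nM GFP-eIF2α, room temperature, 90 minutes. Detection mix with EDTA and Tb-labelled antibody; 520 nm/495 nm emission ratio reported.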
In general terms: In TR-FRET formats the signal depends on donor and acceptor labels being close together.

GCN2, sequence (Q9P2K8 whole entry): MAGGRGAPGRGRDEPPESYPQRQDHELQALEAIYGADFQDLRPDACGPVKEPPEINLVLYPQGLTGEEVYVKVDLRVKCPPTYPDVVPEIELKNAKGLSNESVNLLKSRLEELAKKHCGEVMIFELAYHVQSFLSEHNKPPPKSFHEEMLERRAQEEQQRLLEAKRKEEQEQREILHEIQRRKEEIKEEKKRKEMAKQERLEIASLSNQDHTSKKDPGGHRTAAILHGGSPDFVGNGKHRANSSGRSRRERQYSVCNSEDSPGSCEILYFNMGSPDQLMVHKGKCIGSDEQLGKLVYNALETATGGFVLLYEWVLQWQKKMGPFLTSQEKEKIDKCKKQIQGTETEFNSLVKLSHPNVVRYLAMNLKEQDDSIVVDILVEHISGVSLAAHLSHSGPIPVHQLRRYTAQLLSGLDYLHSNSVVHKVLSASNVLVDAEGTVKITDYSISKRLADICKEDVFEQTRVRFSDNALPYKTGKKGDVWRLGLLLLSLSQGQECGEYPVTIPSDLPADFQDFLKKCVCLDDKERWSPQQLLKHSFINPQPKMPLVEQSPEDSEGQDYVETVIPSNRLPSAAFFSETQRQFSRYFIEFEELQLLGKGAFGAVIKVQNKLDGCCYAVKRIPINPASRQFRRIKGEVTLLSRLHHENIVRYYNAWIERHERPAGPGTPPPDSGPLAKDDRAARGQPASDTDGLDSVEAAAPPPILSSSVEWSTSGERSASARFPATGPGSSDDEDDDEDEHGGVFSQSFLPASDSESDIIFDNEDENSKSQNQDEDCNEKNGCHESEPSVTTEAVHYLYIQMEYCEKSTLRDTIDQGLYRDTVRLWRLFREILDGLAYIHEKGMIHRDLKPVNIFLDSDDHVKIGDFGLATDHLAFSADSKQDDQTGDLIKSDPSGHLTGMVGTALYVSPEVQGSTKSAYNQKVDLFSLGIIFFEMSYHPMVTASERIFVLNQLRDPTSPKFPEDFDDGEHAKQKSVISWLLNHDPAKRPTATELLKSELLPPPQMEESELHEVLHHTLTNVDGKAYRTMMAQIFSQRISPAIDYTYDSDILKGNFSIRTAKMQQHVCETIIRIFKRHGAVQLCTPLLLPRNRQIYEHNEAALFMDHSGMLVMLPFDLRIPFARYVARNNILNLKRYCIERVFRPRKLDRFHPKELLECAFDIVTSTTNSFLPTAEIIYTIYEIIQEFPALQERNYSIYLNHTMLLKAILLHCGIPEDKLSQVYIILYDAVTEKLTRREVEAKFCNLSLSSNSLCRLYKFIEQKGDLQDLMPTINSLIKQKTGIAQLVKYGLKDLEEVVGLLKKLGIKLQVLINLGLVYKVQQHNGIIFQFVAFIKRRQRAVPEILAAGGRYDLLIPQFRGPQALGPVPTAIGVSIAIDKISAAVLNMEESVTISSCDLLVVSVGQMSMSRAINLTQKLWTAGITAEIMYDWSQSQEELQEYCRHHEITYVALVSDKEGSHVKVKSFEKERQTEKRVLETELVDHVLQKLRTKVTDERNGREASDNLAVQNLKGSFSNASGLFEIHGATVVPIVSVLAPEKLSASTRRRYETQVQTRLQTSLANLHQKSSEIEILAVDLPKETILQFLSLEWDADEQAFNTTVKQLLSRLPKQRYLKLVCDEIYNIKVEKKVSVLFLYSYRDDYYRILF

In the case of `CNC(=O)[C@]1(C)CC[C@@H](Nc2ncc3c(Br)nn(-c4cc(Cl)cc([C@@H]5COC(=O)N5)c4)c3n2)C1` [(1R,3R)-3-[[3-bromo-1-[3-chloro-5-[(4R)-2-oxooxazolidin-4-yl]phenyl]pyrazolo[3,4-d]pyrimidin-6-yl]amino]-N,1-dimethyl-cyclopentanecarboxamide], the IC50 was less than 0.025 µM.
The value for `CN(CCNC(=O)[C@@H]1CC[C@@H](Nc2ncc3c(Br)nn(-c4cc(F)c5ncccc5c4)c3n2)C1)CC(=O)O` [N-(2-((1R,3R)-3-((3-bromo-1-(8-fluoroquinolin-6-yl)-1H-pyrazolo[3,4-d]pyrimidin-6-yl)amino)cyclopentane-1-carboxamido)ethyl)-N-methylglycine] was 0.025 to 0.2 µM; that for `CNC(=O)[C@]1(C)CC[C@@H](Nc2ncc3c(Br)nn(-c4ccc(-c5nnc(COC)o5)cc4)c3n2)C1` [(1R,3R)-3-[[3-bromo-1-[4-[5-(methoxy-methyl)-1,3,4-oxadiazol-2-yl]phenyl]pyrazolo [3,4-d]pyrimidin-6-yl]amino]-N,1-dimethyl-cyclopentanecarboxamide] was 0.025 to 0.2 µM.
The value for `Cc1nnc(-c2ccc(-n3nc(Br)c4cnc(N[C@@H]5CCC(CN6CCOCC6)(C(=O)O)C5)nc43)cc2)s1` (stereo partly drawn) was 0.025 to 0.2 µM; that for `CNC(=O)[C@@H]1CC[C@@H](Nc2ncc3c(Br)nn(-c4ccc(N5CCOCC5)c(C#N)c4)c3n2)C1` [(1R,3R)-3-((3-bromo-1-(3-cyano-4-morpholinophenyl)-1H-pyrazolo[3,4-d]pyrimidin-6-yl)amino)-N-methylcyclo-pentane-1-carboxamide] was 0.5 to 1 µM.
As for `CNC(=O)[C@@H]1CC[C@@H](Nc2ncc3c(Br)nn(-c4cc(C#N)c5c(c4)CCO5)c3n2)C1` [(1R,3R)-3-[[3-bromo-1-(7-cyano-2,3-dihydro-benzofuran-5-yl)pyrazolo[3,4-d]pyrimidin-6-yl]amino]-N-methyl-cyclopentanecarboxamide], the figure is 0.025 to 0.2 µM; as for `N#Cc1cc(-n2nc(Br)c3cnc(N[C@@H]4CC[C@@H](C(=O)NCC5(F)CNC5)C4)nc32)cc2cccnc12`, less than 0.025 µM; as for `CNC(=O)[C@]1(C)CC[C@@H](Nc2ncc3c(Br)nn(-c4cc(CCN)c5nccnc5c4)c3n2)C1` [(1R,3R)-3-[[1-[8-(2-aminoethyl)quinoxalin-6-yl]-3-bromo-pyrazolo[3,4-d]pyrimidin-6-yl]amino]-N,1-dimethyl-cyclopentane-carboxamide], 0.025 to 0.2 µM.
In the case of `CNC(=O)C1(C)CC[C@@H](Nc2ncc3c(Br)nn(-c4ccc5nc(C)cc(Cl)c5c4)c3n2)C1` (stereo partly drawn) [(3R)-3-[[3-bromo-1-(4-chloro-2-methyl-6-quinolyl)pyrazolo[3,4-d]pyrimidin-6-yl]amino]-N,1-dimethyl-cyclopentane-carboxamide], the IC50 fell in the range of 0.025 to 0.2 µM.
Take `O=C(N[C@@H]1CCOC1)[C@@H]1CC[C@@H](Nc2ncc3c(Br)nn(-c4cc(F)c5ncccc5c4)c3n2)C1` [(1R,3R)-3-((3-bromo-1-(8-fluoroquinolin-6-yl)-1H-pyrazolo[3,4-d]pyrimidin-6-yl)amino)-N-((R)-tetrahydrofuran-3-yl)cyclopentane-1-carboxamide]: the IC50 was less than 0.025 µM.
As for `CNC(=O)[C@]1(C)CC[C@@H](Nc2ncc3c(Br)nn(-c4ccc(-c5nnc(CC(C)O)o5)cc4)c3n2)C1` (stereo partly drawn) [(1R,3R)-3-[[3-bromo-1-[4-[5-(2-hydroxy-propyl)-1,3,4-oxadiazol-2-yl]phenyl]pyrazolo [3,4-d]pyrimidin-6-yl]amino]-N,1-dimethyl-cyclopentanecarboxamide], the figure is 0.025 to 0.2 µM; as for `C[C@]1(NC(=O)[C@@H]2CC[C@@H](Nc3ncc4c(Br)nn(-c5ccc6ncccc6c5)c4n3)C2)C[C@H](O)C1`, 0.025 to 0.2 µM; as for `NCCc1cc(-n2nc(Br)c3cnc(NC4CC(O)C4)nc32)cc2cccnc12` (stereo not drawn) [3-[[1-[8-(2-aminoethyl)-6-quinolyl]-3-bromo-pyrazolo[3,4-d]pyrimidin-6-yl]amino] cyclobutanol], 0.025 to 0.2 µM.
The value for `O=C(O)C12CCC(Nc3ncc4c(Br)nn(-c5ccc6ncccc6c5)c4n3)(C1)C2` [4-((3-bromo-1-(quinolin-6-yl)-1H-pyrazolo [3,4-d]pyrimidin-6-yl)amino)bicyclo[2.1.1] hexane-1-carboxylic acid] was 0.5 to 1 µM.
`CNC(=O)[C@]1(C)CC[C@@H](Nc2ncc3c(Br)nn(-c4cc(C#N)cc(OCC5CNC5)c4)c3n2)C1` [(1R,3R)-3-[[1-[3-(azetidin-3-ylmethoxy)-5-cyano-phenyl]-3-bromo-pyrazolo[3,4-d]pyrimidin-6-yl]amino]-N,1-dimethyl-cyclopentanecarboxamide]: the IC50 is less than 0.025 µM.
Regarding `CNC(=O)[C@]1(CC(=O)N(C)C)CC[C@@H](Nc2ncc3c(Br)nn(-c4cc(F)c5ncccc5c4)c3n2)C1` [(1R,3R)-3-[[3-bromo-1-(8-fluoro-6-quinolyl)pyrazolo[3,4-d]pyrimidin-6-yl]amino]-1-[2-(dimethylamino)-2-oxo-ethyl]-N-methyl-cyclopentanecarboxamide], the IC50 was less than 0.025 µM.
As for `CS(=O)(=O)N1CC[C@@H](Nc2ncc3c(Br)nn(-c4ccc5ncccc5c4)c3n2)C1` [(R)-3-bromo-N-(1-(methylsulfonyl)pyrrolidin-3-yl)-1-(quinolin-6-yl)-1H-pyrazolo[3,4-d] pyrimidin-6-amine], the IC50 was 0.2 to 0.5 µM.
As for `CNC(=O)C1(C)CC[C@@H](Nc2ncc3c(Br)nn(-c4ccc5nc(OC)ccc5c4)c3n2)C1` (stereo partly drawn) [(3R)-3-[[3-bromo-1-(2-methoxy-6-quinolyl)pyrazolo[3,4-d]pyrimidin-6-yl]amino]-N,1-dimethyl-cyclopentanecarboxamide], the figure is 0.025 to 0.2 µM.
As to `CNC(=O)[C@]1(CC(F)(F)F)CC[C@@H](Nc2ncc3c(Br)nn(-c4ccc(-c5nnc(C)s5)cc4)c3n2)C1`, the IC50 lay within 0.025 to 0.2 µM.
The value for `CC1(C(=O)NC2(C#N)CC2)CC[C@@H](Nc2ncc3c(Br)nn(-c4cc(F)c5ncccc5c4)c3n2)C1` (stereo partly drawn) [(3R)-3-[[3-bromo-1-(8-fluoro-6-quinolyl)pyrazolo[3,4-d]pyrimidin-6-yl]amino]-N-(1-cyanocyclopropyl)-1-methyl-cyclopentane-carboxamide] was less than 0.025 µM; that for `C[C@@H]1CN(C(=O)[C@@H]2CC[C@@H](Nc3ncc4c(Br)nn(-c5ccc6ncccc6c5)c4n3)C2)C[C@H](C)N1` [((1R,3R)-3-((3-bromo-1-(quinolin-6-yl)-1H-pyrazolo[3,4-d]pyrimidin-6-yl)amino)cyclo-pentyl)((3S,5R)-3,5-dimethylpiperazin-1-yl) methanone] was 0.025 to 0.2 µM.
The value for `CC#CC(=O)NCCc1cc(-n2nc(Br)c3cnc(N[C@@H]4CC[C@@](C)(C(=O)NC)C4)nc32)cc2cccnc12` [(1R,3R)-3-[[3-bromo-1-[8-[2-(but-2-ynoylamino)ethyl]-6-quinolyl]pyrazolo [3,4-d]pyrimidin-6-yl]amino]-N,1-dimethyl-cyclopentanecarboxamide] was 0.025 to 0.2 µM; that for `CNC(=O)[C@]1(C)CC[C@@H](Nc2ncc3c(Br)nn(-c4cc(C#N)c5nc(C)ccc5c4)c3n2)C1` [(1R,3R)-3-[[3-bromo-1-(8-cyano-2-methyl-6-quinolyl)pyrazolo[3,4-d]pyrimidin-6-yl]amino]-N,1-dimethyl-cyclopentane-carboxamide] was less than 0.025 µM.
The value for `CCNC(=O)[C@]1(C)CC[C@@H](Nc2ncc3c(Br)nn(-c4cc(F)c5ncccc5c4)c3n2)C1` [(1R,3R)-3-[[3-bromo-1-(8-fluoro-6-quinolyl)pyrazolo[3,4-d]pyrimidin-6-yl]amino]-N-ethyl-1-methyl-cyclopentanecarboxamide] was less than 0.025 µM.
